As usually defined, the pIC50 is the negative decadic logarithm of the IC50, by convention in mol/L.

IC50 data for five compounds are collected here from patent US20090227600A1, “4-(PYRAZINE-2-YL) -PYRROLIDINE -2-CARBOXYLIC ACID COMPOUNDS AND DERIVATIVES THEREOF AS HEPATITIS C VIRUS INHIBITORS” (priority 2004, published 2009).

pIC50: −log10 of the molar value.

Assay [1] deals with Huh-7 HCV replicon cells (genotype 1a). Kind of assay: Replicon ELISA cell based assay, genotype 1a. The arrangement: species or system HCV genotype 1a. As to conditions: Hepatitis C virus, Huh-7 genotype 1a replicon, 72 hours. The method, then: (§1) 100 μL of medium containing 10% FCS were added to each well of clear, flat-bottomed 96 well microplates, excepting wells in the top row. Test compound was diluted in assay medium to twice the final required starting concentration from a 40 mM stock solution in DMSO. 200 μL of the starting dilution were introduced into two wells each in the top row and doubling dilutions made down the plate by the sequential transfer of 100 μL aliquots with thorough mixing in the wells; the final 100 μL were discarded. The two bottom rows were not used for compound dilutions. Huh-7 HCV replicon cell monolayers nearing confluency were stripped from growth flasks with versene-trypsin solution and the cells were resuspended in assay medium at either 2×10^5 cells/mL (sub-line 5-15; genotype 1b; Lohmann, V., Komer, F., Koch, J-O., Herian, U., Thielmann, L. And Bartenschlager, R., 1999, Science, 285, pp 110-113) or at 3×10^5 cells/mL (genotype 1a; Gu, B., Gates, A. T., Isken, O., Behrens, S. E. and Sarisky, R. T., J. Virol., 2003, 77, 5352-5359). 100 μL of cell suspension were added to all wells and the plates incubated at 37° C. for 72 hours in a 5% CO2 atmosphere.
(§2) Following incubation, the assay medium was aspirated from the plates. The cell sheets were washed by gentle immersion in phosphate buffered saline (PBS), which was then aspirated off, and fixed with acetone:methanol (1:1) for 5 minutes. Following a further wash with PBS, 100 μL of ELISA diluent (PBS+0.05% v/v Tween 20+2% w/v skimmed milk powder) were added to all wells and the plates incubated at 37° C. for 30 minutes on an orbital platform. The diluent was removed and each well then received 50 μL of a 1/200 dilution of anti-HCV specific, murine, monoclonal antibody (either Virostat #1872 or #1877), except for wells in one of the compound-free control rows which received diluent alone to act as negative controls. The plates were incubated at 37° C. for 2 hours and washed 3 times with PBS/0.05% Tween 20, then 50 μL of horseradish peroxidase conjugated, anti-mouse, rabbit polyclonal serum (Dako #P0260), diluted 1/1000, were added to all wells. The plates were incubated for a further hour, the antibody removed and the cell sheets washed 5 times with PBS/Tween and blotted dry. The assay was developed by the addition of 50 μL of ortho-phenylenediamine/peroxidase substrate in urea/citrate buffer (SigmaFast, Sigma #P-9187) to each well, and colour allowed to develop for up to 15 minutes. The reaction was stopped by the addition of 25 μL per well of 2 M sulphuric acid and the plates were read at 490 nm on a Fluostar Optima spectrophotometer.
(§3) The substrate solution was removed and the plates were washed in tap water, blotted dry and the cells stained with 5% carbol fuchsin in water for 30 minutes. The stain was discarded and the cell sheets washed, dried and examined microscopically to assess cytotoxicity.
(§4) The absorbance values from all compound-free wells that had received both primary and secondary antibodies were averaged to obtain a positive control value. The mean absorbance value from the compound-free wells that had not received the primary antibody was used to provide the negative (background) control value. The readings from the duplicate wells at each compound concentration were averaged and, after the subtraction of the mean background from all values, were expressed as a percentage of the positive control signal. The quantifiable and specific reduction of expressed protein detected by the ELISA in the presence of a drug can be used as a measure of replicon inhibition. GraFit software was used to plot the curve of percentage inhibition against compound concentration and derive the 50% inhibitory concentration (IC50) for the compound.
For orientation: A replicon is a self-replicating genome or part of one, used to study replication in cells.

For assay [2], the system named is Huh-7 HCV replicon cells (sub-line 5-15; genotype 1b). Kind of assay: Replicon ELISA cell based assay, genotype 1b. The arrangement: species or system HCV genotype 1b. As to conditions: Hepatitis C virus, Huh-7 genotype 1b replicon (sub-line 5-15), 72 hours. As for the experimental part:
as §1, §2, §3, §4

As to `COc1cc(C(=O)N2[C@@H](c3nccs3)[C@@H](c3cnccn3)C[C@@]2(Cc2ccsn2)C(=O)O)ccc1C(C)(C)C` (single isomer, unassigned; enantiomer a) [Example 8], the results for the pIC50 in assay [1] and in assay [2] were more than 5.00 and more than 7.00, respectively.

With `COc1cc(C(=O)N2[C@@H](c3ncc(C)s3)[C@@H](c3cnccn3)C[C@@]2(Cn2cccn2)C(=O)O)ccc1C(C)(C)C` (single isomer, unassigned; enantiomer a) [Example 10], the pIC50 was more than 5.00 in assay [1] and more than 7.00 in assay [2].

Take `COc1cc(C(=O)N2[C@@H](c3nccs3)[C@@H](c3cnccn3)C[C@@]2(Cn2cccn2)C(=O)O)ccc1C(C)(C)C` (single isomer, unassigned; enantiomer a) [Example 12]: the results for the pIC50 in assay [1] and in assay [2] were more than 5.00 and more than 7.00, respectively.

Consider `COc1cc(C(=O)N2[C@@H](c3ncc(C)s3)[C@@H](c3cnccn3)C[C@@]2(Cc2nccs2)C(=O)O)ccc1C(C)(C)C` (single isomer, unassigned; enantiomer a) [Example 14], for which the values for the negative-log IC50 (pIC50) in assay [1] and in assay [2] were more than 5.00 and more than 7.00, respectively.

Take `COc1cc(C(=O)N2[C@@H](c3ncc(C)s3)[C@@H](c3cnccn3)C[C@@]2(Cc2cscn2)C(=O)O)ccc1C(C)(C)C` (single isomer, unassigned; enantiomer a) [Example 16]: the figures for the negative logarithm of the IC50 (pIC50) in assay [1] and in assay [2] were more than 5.00 and more than 7.00, respectively.
